The source made the active and inactive calls. No cut-off for these calls is given here.
Columns and labels:
[1] = system: Mycolicibacterium smegmatis; assay: Antimicrobial activity against Mycobacterium smegmatis ATCC 607 at 100 mcg/mL by agar dilution-streak method; type: functional, organism-based
Klebsiella pneumoniae [2] = assay: Antimicrobial activity against Klebsiella pneumoniae ATCC 10031 at 100 mcg/mL by agar dilution-streak method; type: functional, organism-based
Candida albicans [3] = assay: Antimicrobial activity against Candida albicans ATCC 10231 at 100 mcg/mL by agar dilution-streak method; type: functional, organism-based
[4] = system: Salmonella enterica subsp. enterica serovar Gallinarum; assay: Antimicrobial activity against Salmonella gallinarum ATCC 9184 at 100 mcg/mL by agar dilution-streak method; type: functional, organism-based
Escherichia coli = assay: Antimicrobial activity against Escherichia coli ATCC 9637 at 100 mcg/mL by agar dilution-streak method; type: functional, organism-based
Staphylococcus aureus [5] = assay: Antimicrobial activity against Staphylococcus aureus ATCC 13709 at 100 mcg/mL by agar dilution-streak method; type: functional, organism-based
Staphylococcus aureus [6] = assay: Antimicrobial activity against Staphylococcus aureus ATCC 13709 by agar dilution-streak method; type: functional
[7] = system: Mycolicibacterium smegmatis; assay: Antimicrobial activity against Mycobacterium smegmatis ATCC 607 by agar dilution-streak method; type: functional
Candida albicans [8] = assay: Antimicrobial activity against Candida albicans ATCC 10231 by agar dilution-streak method; type: functional
Klebsiella pneumoniae [9] = assay: Antimicrobial activity against Klebsiella pneumoniae ATCC 10031 by agar dilution-streak method; type: functional

Row | Structure (SMILES) | Activity [1] | Activity (Klebsiella pneumoniae [2]) | Activity (Candida albicans [3]) | Activity [4] | Activity (Escherichia coli) | Activity (Staphylococcus aureus [5]) | Activity (Staphylococcus aureus [6]) [µg/mL] | Activity [7] [µg/mL] | Activity (Candida albicans [8]) [µg/mL] | Activity (Klebsiella pneumoniae [9]) [µg/mL]
1 | COc1cc2oc3cc(=O)cc4oc(-c5ccccc5)cc(c2c2c1CC[C@@H](c1ccccc1)O2)c43 | inactive | inactive | inactive | inactive | inactive | inactive |  |  |  | 
2 | COc1cc2oc3c(C)c(=O)cc4oc(-c5ccccc5)cc(c2c2c1CC[C@@H](c1ccccc1)O2)c43 [DRACORUBIN] |  | inactive |  | inactive | inactive |  | 50 | 25 | 12.5 | 
3 | COc1c2ccc(-c3ccccc3)oc-2cc(=O)c1C [DRACORHODIN] |  |  |  | inactive | inactive |  | 50 | 25 | 25 | 100
4 | COc1cc(=O)cc2oc(-c3ccccc3)ccc1-2 | inactive | inactive | inactive | inactive | inactive | inactive |  |  |  | 
5 | COc1cc(O)cc2c1CC[C@H](c1ccccc1)O2 | inactive | inactive | inactive | inactive | inactive | inactive |  |  |  | 
